Experimental data taken from patent publication US20090137572A1, “2-substituted-4-heteroaryl-pyrimidines useful for the treatment of proliferative disorders” (priority 2004, published 2009).

Assays:
Test in all cases: Kinase selectivity profile, kinase inhibition IC50 (Table 4), ATP 100 μM
Format in all cases: biochemical
[1] = biological target: T1, protein kinases (panel of Table 4) (Homo sapiens, UniProt P49841); conditions: kinase GSK3b
T1 construct: other: kinase GSK3b; ATP 100 μM
Experimental: (§1) For the assays shown in Table 3, the kinases were assayed at the following ATP concentrations: SAPK4, PKBΔph, GSK3b, SAPK3, CK2, MKK1, PIM2, IKKB, ERK8, and PRK2 at 5 μM; JNK, PRAK, ROCK-II, SAPK2b, CDK2, CHK1, MSK1, CSK, P70S6K, PKA, CK1, MAPKAP-K2, SGK, PKCa, PDK1, NEK 7, and MAPKAP-K3 at 20 μM; SAPK2a, LCK, AMPK, MAPK2, DYRK1a, MAPKAP-K1a, NEK-6, NEK2a, PBK, CAMK-1, SRPK-1, JNK3, MNK2, RSK2, MNK1, PKBB, and SmMLCK at 50 μM. For the assays in Table 4 the ATP concentration was 100 μM throughout.

[2] = biological target: T2, protein kinases (panel of Table 4) (Homo sapiens, UniProt P11802); conditions: kinase CDK4D1
T2 construct: other: kinase CDK4D1; ATP 100 μM
Experimental: as §1

[3] = biological target: T3, protein kinases (panel of Table 4) (Homo sapiens, UniProt Q96GD4); conditions: kinase Aurora B
T3 construct: other: kinase Aurora B; ATP 100 μM
Experimental: as §1

[4] = biological target: T4, protein kinases (panel of Table 4) (Homo sapiens, UniProt P06493); conditions: kinase CDK1B
T4 construct: other: kinase CDK1B; ATP 100 μM
Experimental: as §1

[5] = biological target: T5, protein kinases (panel of Table 4) (Homo sapiens, UniProt P50750); conditions: kinase CDK9T1
T5 construct: other: kinase CDK9T1; ATP 100 μM
Experimental: as §1

[6] = biological target: T6, protein kinases (panel of Table 4) (Homo sapiens, UniProt P09619); conditions: kinase PDGFb
T6 construct: other: kinase PDGFb; ATP 100 μM
Experimental: as §1

[7] = biological target: T7, protein kinases (panel of Table 4) (Homo sapiens, UniProt P49840); conditions: kinase GSK3a
T7 construct: other: kinase GSK3a; ATP 100 μM
Experimental: as §1

[8] = biological target: T8, protein kinases (panel of Table 4) (Homo sapiens, UniProt P00519); conditions: kinase Ab1
T8 construct: other: kinase Ab1; ATP 100 μM
Experimental: as §1

[9] = biological target: T9, protein kinases (panel of Table 4) (Homo sapiens, UniProt P06239); conditions: kinase Lck
T9 construct: other: kinase Lck; ATP 100 μM
Experimental: as §1

[10] = biological target: T10, protein kinases (panel of Table 4) (Homo sapiens, UniProt P50613); conditions: kinase CDK7H
T10 construct: other: kinase CDK7H; ATP 100 μM
Experimental: as §1

[11] = biological target: T11, protein kinases (panel of Table 4) (Homo sapiens, UniProt P28482); conditions: kinase ERK2
T11 construct: other: kinase ERK2; ATP 100 μM
Experimental: as §1

[12] = biological target: T12, protein kinases (panel of Table 4) (Homo sapiens, UniProt Q00534); conditions: kinase CDK6D3
T12 construct: other: kinase CDK6D3; ATP 100 μM
Experimental: as §1

[13] = biological target: T13, protein kinases (panel of Table 4) (Homo sapiens, UniProt P36888); conditions: kinase Flt3
T13 construct: other: kinase Flt3; ATP 100 μM
T13 sequence (P36888 1-993): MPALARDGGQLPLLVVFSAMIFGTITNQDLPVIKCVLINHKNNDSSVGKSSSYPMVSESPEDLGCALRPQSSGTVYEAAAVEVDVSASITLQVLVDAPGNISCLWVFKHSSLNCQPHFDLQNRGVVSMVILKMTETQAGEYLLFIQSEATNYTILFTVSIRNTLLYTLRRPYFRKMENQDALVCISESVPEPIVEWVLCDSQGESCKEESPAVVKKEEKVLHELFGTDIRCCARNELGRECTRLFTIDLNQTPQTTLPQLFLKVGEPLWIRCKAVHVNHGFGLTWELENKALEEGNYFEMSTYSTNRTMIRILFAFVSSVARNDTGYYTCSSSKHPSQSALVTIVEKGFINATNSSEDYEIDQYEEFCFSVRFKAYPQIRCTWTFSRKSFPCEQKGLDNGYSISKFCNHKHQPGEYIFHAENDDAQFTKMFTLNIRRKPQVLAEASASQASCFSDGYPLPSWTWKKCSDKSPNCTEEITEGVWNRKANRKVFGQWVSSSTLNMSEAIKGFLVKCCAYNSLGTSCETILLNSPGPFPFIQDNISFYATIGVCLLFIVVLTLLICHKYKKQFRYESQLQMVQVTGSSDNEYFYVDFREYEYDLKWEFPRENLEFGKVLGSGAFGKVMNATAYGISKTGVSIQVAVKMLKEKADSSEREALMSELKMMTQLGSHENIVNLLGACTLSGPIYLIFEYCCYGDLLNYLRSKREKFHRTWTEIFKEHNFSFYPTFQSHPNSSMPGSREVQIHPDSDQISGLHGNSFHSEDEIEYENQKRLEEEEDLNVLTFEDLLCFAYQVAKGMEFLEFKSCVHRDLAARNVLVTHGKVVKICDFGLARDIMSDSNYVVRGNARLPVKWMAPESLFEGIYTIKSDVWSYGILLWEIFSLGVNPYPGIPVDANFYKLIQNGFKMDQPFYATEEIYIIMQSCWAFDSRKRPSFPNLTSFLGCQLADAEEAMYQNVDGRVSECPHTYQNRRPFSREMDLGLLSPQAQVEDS
Experimental: as §1

T4 sequence (P06493 whole entry): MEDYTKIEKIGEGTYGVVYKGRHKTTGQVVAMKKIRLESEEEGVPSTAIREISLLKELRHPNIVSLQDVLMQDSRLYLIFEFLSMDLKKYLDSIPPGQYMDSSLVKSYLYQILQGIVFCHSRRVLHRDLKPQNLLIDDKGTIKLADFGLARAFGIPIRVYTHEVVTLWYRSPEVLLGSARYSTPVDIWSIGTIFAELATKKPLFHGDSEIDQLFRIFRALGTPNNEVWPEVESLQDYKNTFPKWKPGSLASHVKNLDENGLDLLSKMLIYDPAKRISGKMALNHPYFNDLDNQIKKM
T12 sequence (Q00534 whole entry): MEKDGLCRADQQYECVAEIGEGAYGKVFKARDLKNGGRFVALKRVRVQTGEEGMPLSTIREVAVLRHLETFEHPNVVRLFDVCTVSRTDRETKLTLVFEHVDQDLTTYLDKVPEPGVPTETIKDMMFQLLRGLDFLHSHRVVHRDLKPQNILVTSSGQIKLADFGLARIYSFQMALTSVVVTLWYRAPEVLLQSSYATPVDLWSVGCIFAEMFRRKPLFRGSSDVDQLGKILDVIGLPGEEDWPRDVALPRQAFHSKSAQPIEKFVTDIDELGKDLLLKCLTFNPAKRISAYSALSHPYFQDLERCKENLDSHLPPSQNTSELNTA
T11 sequence (P28482 whole entry): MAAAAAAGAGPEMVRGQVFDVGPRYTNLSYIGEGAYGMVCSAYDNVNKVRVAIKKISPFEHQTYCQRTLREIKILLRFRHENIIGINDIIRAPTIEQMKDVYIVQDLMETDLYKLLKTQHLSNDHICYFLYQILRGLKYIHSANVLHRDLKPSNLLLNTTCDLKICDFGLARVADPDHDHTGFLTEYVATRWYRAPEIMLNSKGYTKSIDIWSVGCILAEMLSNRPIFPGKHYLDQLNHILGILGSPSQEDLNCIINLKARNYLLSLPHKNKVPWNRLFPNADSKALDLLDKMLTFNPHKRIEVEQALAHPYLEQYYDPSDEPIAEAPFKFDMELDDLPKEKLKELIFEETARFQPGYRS
T2 sequence (P11802 whole entry): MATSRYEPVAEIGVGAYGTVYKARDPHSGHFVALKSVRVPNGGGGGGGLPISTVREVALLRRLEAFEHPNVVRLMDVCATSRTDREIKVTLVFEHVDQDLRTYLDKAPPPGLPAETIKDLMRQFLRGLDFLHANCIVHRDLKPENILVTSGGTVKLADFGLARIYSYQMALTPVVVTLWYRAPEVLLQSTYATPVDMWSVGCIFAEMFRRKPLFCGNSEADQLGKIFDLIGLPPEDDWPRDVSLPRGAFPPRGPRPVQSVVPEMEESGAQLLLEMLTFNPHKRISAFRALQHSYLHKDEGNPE
T1 sequence (P49841 whole entry): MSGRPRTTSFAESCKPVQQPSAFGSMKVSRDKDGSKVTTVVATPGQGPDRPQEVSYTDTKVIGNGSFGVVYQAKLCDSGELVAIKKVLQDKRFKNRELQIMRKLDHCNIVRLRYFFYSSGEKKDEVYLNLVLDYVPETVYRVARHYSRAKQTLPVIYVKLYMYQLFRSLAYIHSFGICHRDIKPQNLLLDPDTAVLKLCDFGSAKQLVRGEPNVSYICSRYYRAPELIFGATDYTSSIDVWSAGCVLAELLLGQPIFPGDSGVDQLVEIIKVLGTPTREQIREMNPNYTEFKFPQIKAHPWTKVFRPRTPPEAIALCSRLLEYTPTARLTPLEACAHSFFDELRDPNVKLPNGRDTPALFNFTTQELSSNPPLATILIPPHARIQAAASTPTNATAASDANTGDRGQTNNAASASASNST
T7 sequence (P49840 whole entry): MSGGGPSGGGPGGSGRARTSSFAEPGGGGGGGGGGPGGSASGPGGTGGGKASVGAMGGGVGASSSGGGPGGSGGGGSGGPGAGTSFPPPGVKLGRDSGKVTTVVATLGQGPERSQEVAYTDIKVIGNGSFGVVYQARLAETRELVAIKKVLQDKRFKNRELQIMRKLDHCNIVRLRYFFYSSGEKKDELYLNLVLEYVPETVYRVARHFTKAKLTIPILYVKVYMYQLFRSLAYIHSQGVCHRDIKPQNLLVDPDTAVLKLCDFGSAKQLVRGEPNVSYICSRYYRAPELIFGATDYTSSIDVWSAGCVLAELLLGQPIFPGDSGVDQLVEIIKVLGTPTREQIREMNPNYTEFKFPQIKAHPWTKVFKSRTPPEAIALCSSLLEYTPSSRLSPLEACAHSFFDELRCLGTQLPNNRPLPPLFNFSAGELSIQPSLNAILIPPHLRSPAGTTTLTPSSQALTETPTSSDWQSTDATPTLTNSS
T6 sequence (P09619 whole entry): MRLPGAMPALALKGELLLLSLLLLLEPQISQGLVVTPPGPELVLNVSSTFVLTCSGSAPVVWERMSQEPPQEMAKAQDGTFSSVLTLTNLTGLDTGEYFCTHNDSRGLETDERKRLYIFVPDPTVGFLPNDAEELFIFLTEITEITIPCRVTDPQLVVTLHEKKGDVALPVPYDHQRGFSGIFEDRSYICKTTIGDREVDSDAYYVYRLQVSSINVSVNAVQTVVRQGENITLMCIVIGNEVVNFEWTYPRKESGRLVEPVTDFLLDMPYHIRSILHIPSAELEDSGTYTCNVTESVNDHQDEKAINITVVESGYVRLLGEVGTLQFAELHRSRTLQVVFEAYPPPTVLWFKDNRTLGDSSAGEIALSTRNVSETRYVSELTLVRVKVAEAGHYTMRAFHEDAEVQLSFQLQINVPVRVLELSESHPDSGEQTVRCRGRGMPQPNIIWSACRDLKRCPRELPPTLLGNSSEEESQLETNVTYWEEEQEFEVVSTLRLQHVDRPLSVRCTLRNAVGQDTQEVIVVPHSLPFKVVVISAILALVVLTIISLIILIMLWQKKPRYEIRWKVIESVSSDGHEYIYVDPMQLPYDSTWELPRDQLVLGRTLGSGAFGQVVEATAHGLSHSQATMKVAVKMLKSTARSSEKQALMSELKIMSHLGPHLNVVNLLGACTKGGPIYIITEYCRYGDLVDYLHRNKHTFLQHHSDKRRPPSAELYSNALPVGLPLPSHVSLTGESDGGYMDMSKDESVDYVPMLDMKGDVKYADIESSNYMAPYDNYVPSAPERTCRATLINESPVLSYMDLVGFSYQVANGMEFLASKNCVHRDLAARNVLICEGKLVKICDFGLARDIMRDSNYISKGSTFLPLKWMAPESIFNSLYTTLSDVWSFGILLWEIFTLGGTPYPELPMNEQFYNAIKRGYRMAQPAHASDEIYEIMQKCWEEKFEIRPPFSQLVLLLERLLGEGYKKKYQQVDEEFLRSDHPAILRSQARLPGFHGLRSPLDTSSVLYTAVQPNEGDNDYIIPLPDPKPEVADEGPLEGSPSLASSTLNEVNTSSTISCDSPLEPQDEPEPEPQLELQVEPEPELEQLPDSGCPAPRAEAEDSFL
T3 sequence (Q96GD4 whole entry): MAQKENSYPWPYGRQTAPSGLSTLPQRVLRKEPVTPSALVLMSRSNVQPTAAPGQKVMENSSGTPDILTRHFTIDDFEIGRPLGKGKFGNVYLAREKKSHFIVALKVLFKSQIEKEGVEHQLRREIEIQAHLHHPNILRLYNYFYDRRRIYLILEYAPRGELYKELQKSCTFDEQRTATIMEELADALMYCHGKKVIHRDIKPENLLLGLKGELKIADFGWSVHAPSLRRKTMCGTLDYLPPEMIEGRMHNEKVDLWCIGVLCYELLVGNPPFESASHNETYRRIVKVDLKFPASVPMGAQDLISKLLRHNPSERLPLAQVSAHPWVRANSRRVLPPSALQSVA
T8 sequence (P00519 whole entry): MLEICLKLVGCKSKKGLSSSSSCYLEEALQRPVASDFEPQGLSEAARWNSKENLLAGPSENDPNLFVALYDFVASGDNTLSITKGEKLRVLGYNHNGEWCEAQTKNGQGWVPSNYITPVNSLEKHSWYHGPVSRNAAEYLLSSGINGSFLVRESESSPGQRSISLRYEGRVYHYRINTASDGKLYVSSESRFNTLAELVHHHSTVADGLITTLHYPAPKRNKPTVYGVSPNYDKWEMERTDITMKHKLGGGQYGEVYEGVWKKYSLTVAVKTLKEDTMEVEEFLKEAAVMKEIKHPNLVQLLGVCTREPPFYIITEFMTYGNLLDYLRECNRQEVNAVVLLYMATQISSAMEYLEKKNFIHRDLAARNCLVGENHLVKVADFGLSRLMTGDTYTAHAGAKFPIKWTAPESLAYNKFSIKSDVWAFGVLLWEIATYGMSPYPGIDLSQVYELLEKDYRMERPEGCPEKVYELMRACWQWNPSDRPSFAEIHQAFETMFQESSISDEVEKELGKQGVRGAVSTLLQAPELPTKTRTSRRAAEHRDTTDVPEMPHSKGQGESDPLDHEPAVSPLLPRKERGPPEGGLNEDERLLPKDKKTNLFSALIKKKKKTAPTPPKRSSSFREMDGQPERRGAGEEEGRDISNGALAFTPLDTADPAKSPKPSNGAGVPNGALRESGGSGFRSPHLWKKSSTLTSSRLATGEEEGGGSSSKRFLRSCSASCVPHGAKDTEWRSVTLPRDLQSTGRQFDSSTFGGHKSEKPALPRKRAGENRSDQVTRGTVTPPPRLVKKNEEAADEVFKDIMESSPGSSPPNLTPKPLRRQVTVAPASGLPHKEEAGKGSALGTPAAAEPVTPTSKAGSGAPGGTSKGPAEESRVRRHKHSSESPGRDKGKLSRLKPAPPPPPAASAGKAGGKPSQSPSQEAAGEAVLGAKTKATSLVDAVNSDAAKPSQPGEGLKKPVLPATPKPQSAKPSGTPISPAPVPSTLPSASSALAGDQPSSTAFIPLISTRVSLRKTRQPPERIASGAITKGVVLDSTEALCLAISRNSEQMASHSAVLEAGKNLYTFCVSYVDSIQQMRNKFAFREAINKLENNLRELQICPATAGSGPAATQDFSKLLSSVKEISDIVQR

Row | Structure (SMILES) | IC50 [1] | IC50 [2] | IC50 [3] | IC50 [4] | IC50 [5] | IC50 [6] | IC50 [7] | IC50 [8] | IC50 [9] | IC50 [10] | IC50 [11] | IC50 [12] | IC50 [13]
1 | CNc1nc(C)c(-c2ccnc(Nc3cccc(S(N)(=O)=O)c3)n2)s1 [Compound 19, 3-[4-(4-Methyl-2-methylamino-thiazol-5-yl)-pyrimidin-2-ylamino]-benzenesulfonamide] | 0.17 µM | 0.017 µM | 0.02 µM | 0.2 µM | 0.003 µM | 0.49 µM | 0.16 µM | 0.37 µM | 0.49 µM | 0.054 µM | > 10 µM | 0.039 µM | 0.03 µM
2 | CNc1nc(C)c(-c2ccnc(Nc3cccc(S(C)(=O)=O)c3)n2)s1 [Compound 27, (3-Methanesulfonyl-phenyl)-[4-(4-methyl-2-methylamino-thiazol-5-yl)-pyrimidin-2-yl]-amine] | 0.094 µM | 0.18 µM | 0.26 µM | 0.26 µM | 0.001 µM | 0.52 µM | 0.012 µM | 2.1 µM | 0.5 µM | 0.2 µM | > 10 µM | 0.33 µM | 0.065 µM
3 | CNc1nc(C)c(-c2ccnc(Nc3ccc(C)c(S(=O)(=O)N4CCOCC4)c3)n2)s1 [Compound 37, [4-(4-Methyl-2-methylamino-thiazol-5-yl)-pyrimidin-2-yl]-[4-methyl-3-(morpholine-4-sulfonyl)-phenyl]-amine] | 1.8 µM | > 10 µM | 0.24 µM | > 10 µM | 0.022 µM | 6.6 µM | 0.65 µM | 3.8 µM | 4.9 µM | 5.9 µM | > 10 µM | > 10 µM | 0.17 µM
4 | Cc1ccc(Nc2nccc(-c3sc(N)nc3C)n2)cc1S(=O)(=O)N1CCOCC1 [Compound 38, [4-(2-Amino-4-methyl-thiazol-5-yl)-pyrimidin-2-yl]-[4-methyl-3-(morpholine-4-sulfonyl)-phenyl]-amine] | 2.2 µM | > 10 µM | 0.14 µM | > 10 µM | 0.028 µM | 4.8 µM | 0.96 µM | 2.3 µM | 2.6 µM | 0.65 µM | > 10 µM | 4.8 µM | 0.2 µM
5 | COCCNS(=O)(=O)c1cccc(Nc2nccc(-c3sc(N)nc3C)n2)c1 [Compound 55, 3-[4-(2-Amino-4-methyl-thiazol-5-yl)-pyrimidin-2-ylamino]-N-(2-methoxy-ethyl)-benzenesulfonamide] | 0.45 µM | 1.6 µM | 0.11 µM | 2.9 µM | 0.03 µM | 1.9 µM | 0.29 µM | 2.1 µM | 1.8 µM | 0.62 µM | > 10 µM | 2.1 µM | 0.18 µM
6 | CCNc1nc(C)c(-c2ccnc(Nc3ccc(N4CCNCC4)cc3)n2)s1 [Compound 59, [4-(2-Ethylamino-4-methyl-thiazol-5-yl)-pyrimidin-2-yl]-(4-piperazin-1-yl-phenyl)-amine] | > 10 µM | 0.046 µM | 0.016 µM | 1.2 µM | 0.11 µM | 0.21 µM | > 10 µM | 0.47 µM | 0.12 µM | 0.16 µM | > 10 µM | 0.029 µM | 0.017 µM
